Results published in patent US7186825B2, “Conformationally restricted polyamine analogs as disease therapies” (Cellgate, Inc., priority 1999, dated 2007).
Structures can show the parent of a compound that is named as a salt. Where two headings read alike, the source gives them in different places.

Tests used:
[1] = test system: human prostate cancer cells PC3; assay: MTT assay, survival/growth of cultured human prostate cancer cells PC3; assay type: cell-based; conditions: for EC50: figure legends, survival of cultured PC3 cells, MTT, six days after drug treatment, read-out: ED50 (the source's name); for IC50: read-out: concentration needed for 50% growth inhibition (ID50), Table 3, PC-3
Protocol: (§1) Human breast cancer cell line MCF7 was grown in Richter's Improved Modified Eagle's Medium supplemented with 10% fetal bovine serum (FBS) and 2.2 g/L sodium bicarbonate. Human brain tumor cell line U251 MG-NCI was grown in Dulbecco's Modified Eagle's Medium supplemented with 10% FBS. Human lung cancer cell line A549 was grown in Ham's F-12K medium (Cellgro, Mediatech, Inc., VA), supplemented with 10% FBS and 2 mM L-glutamine. Human colon cancer cell line HT29 was cultured in McCoy's 5A medium (Gibco, BRL, Gaithersburg, Md.) supplemented with 10% FBS. Human prostate cancer cell lines PC-3, LNCAP and DuPro were grown in RPMI 1640 Medium (Cellgro, Mediatech, Inc., VA) supplemented with 10% FBS. Another human prostate cancer cell line DU145 was grown in Dulbecco's Modified Eagle's Medium (Gibco, BRL, Gaithersburg, Md.) supplemented with 5% FBS. The A549, MCF7, PC3, LNCAP and DuPro cell lines were cultured in 100 units/mL penicillin and 100 μg/mL streptomycin. HT29 and U251MG cell lines were grown in 50 μg/mL gentamycin (Gibco, BRL, Gaithersburg, Md.). DU145 cell line was maintained in 1% antibitic-antimycotic solution (Sigma, St. Louis, Mo.). The cell cultures were maintained at 37° C. in 5% CO2/95% humidified air. DuPro cells were obtained from M. Eileen Dolan, University of Chicago. All other cells are available from the American Type Culture Collection, Rockville, Md.
(§2) A conventional MTT assay was used to evaluate percent cell survival. Exponentially growing monolayer cells were plated in 96-well plates at a density of 500 cells per well and allowed to grow for 24 hours. Serial dilutions of the drugs were added to the wells. Six days after drug treatment, 25 μl of MTT solution (5 mg/ml) was added to each well and incubated for 4 hours at 37° C. Then 100 μl of lysis buffer (20% sodium dodecyl sulfate, 50% DMF, and 0.8% acetic acid, pH 4.7) was added to each well and incubated for an additional 22 hours. A microplate reader (“EMAX”-brand, Molecular Devices, Sunnyvale, Calif.) set at 570 nm was used to determine the optical density of the cultures. Results are expressed as a ratio of the optical density in drug-treated wells to the optical density in wells treated with vehicle only.
(§3) Using the protocols of Example 2, the porphyrin-polyamine conjugates were tested for activity in vitro in various cancer cell lines.

[2] = test system: human prostate cancer cells DU145; assay: MTT assay, survival/growth of cultured human prostate cancer cells DU145; assay type: cell-based; conditions: for EC50: figure legends, survival of cultured DU145 cells, MTT, six days after drug treatment, read-out: ED50 (the source's name); for IC50: read-out: concentration needed for 50% growth inhibition (ID50), Table 3, DU-145
Protocol: as §1, §2, §3

[3] = test system: human prostate cancer cells LNCAP; assay: MTT assay, survival/growth of cultured human prostate cancer cells LNCAP; assay type: cell-based; conditions: figure legends, survival of cultured LNCAP cells, six days after drug treatment, read-out: ED50 (the source's name)
Protocol: as §1, §2, §3

[4] = test system: human colon cancer cells HT29; assay: MTT assay, survival/growth of cultured human colon cancer cells HT29; assay type: cell-based; conditions: for EC50: figure legends, survival of cultured HT29 cells, MTT, six days after drug treatment, read-out: ED50 (the source's name); for IC50: read-out: concentration needed for 50% growth inhibition (ID50), Table 3, HT-29
Protocol: (§4) As shown in Table 3 and FIGS. 1–32, several novel conformationally restricted polyamine analogs were tested for anti-proliferative properties against cancer cells.
as §1, §2

[5] = test system: human lung cancer cells A549; assay: MTT assay, survival/growth of cultured human lung cancer cells A549; assay type: cell-based; conditions: for EC50: figure legends, survival of cultured A549 cells, MTT, six days after drug treatment, read-out: ED50 (the source's name); for IC50: read-out: concentration needed for 50% growth inhibition (ID50); for IC50 / concentration needed for 50% growth inhibition (ID50): Table 3, A549
Protocol: as §4, §1, §2

[6] = test system: human prostate cancer cells DUPRO; assay: MTT assay, survival/growth of cultured human prostate cancer cells DUPRO; assay type: cell-based; conditions: for EC50: figure legends, survival of cultured DUPRO cells, MTT, six days after drug treatment, read-out: ED50 (the source's name); for IC50: read-out: concentration needed for 50% growth inhibition (ID50), Table 3, DUPRO
Protocol: as §1, §2, §3

[7] = test system: human breast cancer cells MCF7; assay: MTT assay, survival/growth of cultured human breast cancer cells MCF7; assay type: cell-based; conditions: for EC50: figure legends, survival of cultured MCF7 cells, MTT, six days after drug treatment, read-out: ED50 (the source's name); for IC50: read-out: concentration needed for 50% growth inhibition (ID50), Table 3, MCF7
Protocol: as §4, §1, §2

[8] = test system: human brain tumor cells U251 MG NCI; assay: MTT assay, survival/growth of cultured human brain tumor cells U251 MG NCI; assay type: cell-based; conditions: for EC50: figure legends, survival of cultured U251 MG NCI cells, MTT, six days after drug treatment, read-out: ED50 (the source's name); for IC50: read-out: concentration needed for 50% growth inhibition (ID50), Table 3, U251MG
Protocol: as §1, §2

| SMILES | EC50 [1] | EC50 [2] | EC50 [3] | EC50 [5] | EC50 ([1]; Homo sapiens, PC-3, 144 h) | IC50 ([1]; Homo sapiens) | EC50 ([2]; Homo sapiens, DU-145, 144 h) | IC50 ([2]; Homo sapiens) | EC50 ([3]; Homo sapiens, 144 h) | IC50 ([4]; Homo sapiens) | EC50 ([5]; Homo sapiens, 144 h) | IC50 ([5]; Homo sapiens) | EC50 ([6]; Homo sapiens, 144 h) | IC50 ([6]; Homo sapiens) | IC50 [1] | EC50 [8] | IC50 [2] | IC50 [4] | IC50 [6] | IC50 [7] | further results |
| --- | --- | --- | --- | --- | --- | --- | --- | --- | --- | --- | --- | --- | --- | --- | --- | --- | --- | --- | --- | --- | --- |
| CCNCCCCNCCCCNCCCCNCCCC1=C(C)c2cc3[nH]c(cc4nc(cc5[nH]c(cc1n2)c(CCCNCCCCNCCCCNCCCCNCC)c5C)C(CC)=C4C)c(CC)c3C (as salt: hydrochloride) [SL-11202] | – | – | – | – | – | – | – | – | – | – | – | – | – | – | – | – | – | – | – | – | melting point: 200 °C |
| CCNCCCCNCCCCNCCCCNCC [BE-444, N1,N14-bis(ethyl) homospermine, reference compound] | 0.7 µM | 0.03 µM | 0.1 µM | 0.15 µM | – | – | – | – | – | – | – | – | – | – | – | – | – | – | – | – | EC50 [4]: 0.93 µM |
| CCNCCCCNCCCCNCCCCNCCCCNCC [BE-4444, 1,19-bis(ethylamino)-5,10,15-triazanonadecane, reference compound] | – | – | – | – | 0.6 µM | 0.54 µM | 0.07 µM | 0.07 µM | 0.14 µM | 0.8 µM | > 31.2 µM | 0.4 µM | 0.2 µM | 0.2 µM | – | – | – | – | – | – | EC50 ([4]; Homo sapiens, HT-29, 144 h): 0.5 µM; EC50 ([7]; Homo sapiens, 144 h): > 31.2 µM; IC50 ([7]; Homo sapiens): > 31.2 µM |
| CCNCCCCNCC1CC1CNCCCCNCC (centres unmarked) [SL-11093] | 1.6 µM | 0.016 µM | 0.21 µM | 0.26 µM | – | – | – | – | – | – | – | – | – | – | 14.3 µM | 0.07 µM | 0.01 µM | 0.4 µM | 0.06 µM | 0.66 µM | IC50 [5]: 0.26 µM; EC50 [7]: 0.66 µM |
| CCNCCCCNCC1CC1CNCCCCNCC (centres unmarked) [SL-11098] | 1.4 µM | 0.02 µM | 0.17 µM | 0.29 µM | – | – | – | – | – | – | – | – | – | – | 1.4 µM | 0.1 µM | 0.018 µM | 0.4 µM | 0.08 µM | > 31.2 µM | IC50 [8]: 0.1 µM; concentration needed for 50% growth inhibition (ID50) [5]: 0.51 µM |
| CCNCCCCNCC1CCC1CNCCCCNCC (centres unmarked) [SL-11099] | 2.5 µM | 0.014 µM | 0.21 µM | 0.51 µM | – | – | – | – | – | – | – | – | – | – | 2.5 µM | 0.11 µM | 0.014 µM | 1 µM | 0.08 µM | 26.3 µM | IC50 [8]: 0.11 µM; concentration needed for 50% growth inhibition (ID50) [5]: 0.65 µM; EC50 [6]: 0.08 µM; EC50 [7]: 26.3 µM |
| CCNCCCCNCC1CCC1CNCCCCNCC (centres unmarked) [SL-11100] | 4.7 µM | 0.021 µM | 0.7 µM | 0.65 µM | – | – | – | – | – | – | – | – | – | – | 4.7 µM | 0.22 µM | 0.021 µM | 2 µM | 0.29 µM | > 31.2 µM | IC50 [8]: 0.22 µM; concentration needed for 50% growth inhibition (ID50) [5]: 2.20 µM; EC50 [6]: 0.3 µM |
| CCNC/C=C\CNC/C=C\CNC/C=C\CNCC [SL-11108] | 2.2 µM | 0.13 µM | 7.7 µM | – | – | – | – | – | – | – | – | – | – | – | 2.2 µM | 2 µM | 0.13 µM | 2 µM | 0.98 µM | > 31.2 µM | IC50 [8]: 2 µM; concentration needed for 50% growth inhibition (ID50) [5]: >31.25 µM; EC50 [6]: 0.98 µM |
| CCNC/C=C\CNCCCCNC/C=C\CNCC [SL-11114] | – | – | – | – | 0.7 µM | 0.7 µM | 0.13 µM | 0.135 µM | 3 µM | 3.6 µM | > 31.2 µM | > 31.2 µM | 0.64 µM | 0.64 µM | – | – | – | – | – | – | – |
| CCNC/C=C\CNCCCCNCCCCNCC [SL-11118] | – | – | – | – | 1.65 µM | 1.65 µM | 0.05 µM | 0.05 µM | 0.21 µM | 0.98 µM | 0.214 µM | 0.21 µM | 0.25 µM | 0.25 µM | – | – | – | – | – | – | – |
| CCNC/C=C\CNCCCCNCCCCNCCCCNCC [SL-11121] | – | – | – | – | 0.52 µM | 0.52 µM | 0.08 µM | 0.08 µM | 0.14 µM | 0.8 µM | > 31.2 µM | > 31.2 µM | 0.4 µM | 0.4 µM | – | – | – | – | – | – | EC50 ([7]; Homo sapiens, 144 h): 17 µM; IC50 ([7]; Homo sapiens): 17 µM |
| CCNC/C=C\CNC/C=C\CNC/C=C\CNC/C=C\CNCC [SL-11126] | – | – | – | – | 0.2 µM | 0.2 µM | 0.51 µM | 0.51 µM | 0.55 µM | 1.5 µM | > 31.2 µM | > 31.2 µM | 1.1 µM | 1.1 µM | – | – | – | – | – | – | EC50 ([7]; Homo sapiens, 144 h): 0.7 µM; IC50 ([7]; Homo sapiens): 0.7 µM |
| CCNC/C=C\CNCCCCNCCCCNC/C=C\CNCC [SL-11128] | – | – | – | – | 0.5 µM | 0.5 µM | 0.14 µM | 0.14 µM | 0.3 µM | 1.35 µM | – | – | 1.28 µM | 1.25 µM | – | – | – | – | – | – | – |
